From US10017584B2, “6-deoxy-6-thioether-amino acid cyclodextrin derivative and preparation method thereof” (Hangzhou Adamerck Pharmlabs Inc., priority 2010, dated 2018) come the findings set out here.

One test has as its system muscular relaxation induced by rocuronium bromide. Kind of test: Reversal of rocuronium bromide induced muscular relaxation in anaesthetised Guinea pigs (TOF-Watch SX monitor). It counts as in vivo, Guinea pig. The note with it: Guinea pig; compound 2 mg/kg given when TOFR disappears and T1 decreases more than 80%, after i.v. rocuronium bromide (twice ED90 dose). An excerpt:
After pentobarbital sodium anesthesia in the abdominal cavity, the Guinea pigs are fixed on rat boards and connected to small animal ventilators after endotracheal intubation. Stimulating electrodes of a muscular relaxation monitor, TOF-Watch SX, are respectively connected to left post-femur and post-tibialis subcutis of the Guinea pig. Self-made tools are used to fix the left tibialis on a small platform while permitting the left hind paw to be able to move freely. A sensor is fixed on a palm surface of a left hind leg of the Guinea pig and a probe of skin temperature is fixed on a palm surface of a left front leg of the Guinea pig.
On to “6-per-deoxy-6-per-(N-ethyl-D-cysteine)thioether-β-cyclodextrin [CD-28]”, for which the “T1 recovering to 25%/time” value is 8.25 min, the “T1 recovering to 50%/time” value was found to be 12.25 min, the “T1 recovering to 75%/time” value was 15.00 min and the “TOF recovering to 50%/time” value turned out to be 12.75 min. For the same molecule, the “TOF recovering to 75%/time” value worked out at 16.25 min.

Consider “6-per-deoxy-6-per-(N-methyl-D-cysteine)thioether-β-cyclodextrin [CD-26]”, for which the “T1 recovering to 25%/time” value stood at 7.75 min, the “T1 recovering to 50%/time” value turned out to be 12.25 min, the “T1 recovering to 75%/time” value stood at 16.00 min and the “TOF recovering to 50%/time” value amounted to 8.00 min. Further, the “TOF recovering to 75%/time” value was 11.75 min.

Staying with this test, now noted: guinea pig, in vivo, iv, 2 mg/kg.
As to “6-per-deoxy-6-per-(α-L-glycine methyl)sulfinyl-γ-cyclodextrin [CD-5]”, the “T1 recovering to 25%/time” value was 3.50 min, the “T1 recovering to 50%/time” value worked out at 4.25 min, the “T1 recovering to 75%/time” value was determined as 8.25 min and the “TOF recovering to 50%/time” value was 4.75 min. Besides, the “TOF recovering to 75%/time” value is 7.25 min.

As for “6-per-deoxy-6-per-(α-L-glycine ethyl)thioether-γ-cyclodextrin [CD-16]”, the “T1 recovering to 25%/time” value was 2.25 min, the “T1 recovering to 50%/time” value amounted to 3.50 min, the “T1 recovering to 75%/time” value was 8.50 min and the “TOF recovering to 50%/time” value is 3.50 min. Further, the “TOF recovering to 75%/time” value is 5.75 min.

Take “6-per-deoxy-6-per-(N-methyl-D-cysteine)thioether-β-cyclodextrin sodium salt [CD-27]”: the “T1 recovering to 25%/time” value is 8.25 min, the “T1 recovering to 50%/time” value worked out at 11.25 min, the “T1 recovering to 75%/time” value was determined as 16.00 min and the “TOF recovering to 50%/time” value was 8.25 min. The “TOF recovering to 75%/time” value was 10.75 min.

Take `CC(=O)NC(CSC[C@H]1O[C@@H]2O[C@H]3[C@H](O)[C@@H](O)[C@@H](O[C@H]4[C@H](O)[C@@H](O)[C@@H](O[C@H]5[C@H](O)[C@@H](O)[C@@H](O[C@H]6[C@H](O)[C@@H](O)[C@@H](O[C@H]7[C@H](O)[C@@H](O)[C@@H](O[C@H]8[C@H](O)[C@@H](O)[C@@H](O[C@H]9[C@H](O)[C@@H](O)[C@@H](O[C@H]1[C@H](O)[C@H]2O)O[C@@H]9CSCC(NC(C)=O)C(=O)O)O[C@@H]8CSCC(NC(C)=O)C(=O)O)O[C@@H]7CSCC(NC(C)=O)C(=O)O)O[C@@H]6CSCC(NC(C)=O)C(=O)O)O[C@@H]5CSCC(NC(C)=O)C(=O)O)O[C@@H]4CSCC(NC(C)=O)C(=O)O)O[C@@H]3CSCC(NC(C)=O)C(=O)O)C(=O)O` (stereo partly shown) [CD-8, 6-per-deoxy-6-per-(N-acetylglycinemethyl)thioether-γ-cyclodextrin]: the “T1 recovering to 50%/time” value was 2.75 min, the “T1 recovering to 75%/time” value was determined as 4.25 min, the “TOF recovering to 50%/time” value was determined as 2.50 min and the “TOF recovering to 75%/time” value was determined as 3.50 min.

As for “6-per-deoxy-6-per-(N-ethyl-D-cysteine)thioether-β-cyclodextrin sodium salt [CD-29]”, the “T1 recovering to 25%/time” value worked out at 6.75 min, the “T1 recovering to 50%/time” value came to 8.50 min, the “T1 recovering to 75%/time” value was found to be 9.25 min and the “TOF recovering to 50%/time” value worked out at 6.50 min. For the same molecule, the “TOF recovering to 75%/time” value is 8.25 min.
